# From patent publication US7825253B2, “2-aminoquinoline derivatives” (Hoffmann-La Roche Inc., priority 2006, dated 2010)
# Target: T1, recombinant human 5-HT5A receptor (Homo sapiens, UniProt P47898)
# T1 construct: expressed in transfected cells; host or cells: Human Embryonic Kidney-EBNA (HEK-EBNA) cells, transient cDNA expression; membranes
# Assay: [3H]LSD radioligand binding assay
# Settings: not given
# Protocol: A [^3H]LSD radioligand binding assay was used to determine the affinity of the compounds for the recombinant human 5-HT5A receptor, in membranes from transiently (cDNA) expressed 5-HT5A receptors in Human Embryonic Kidney-EBNA (HEK-EBNA) cells. Assay buffer consisted of Tris (50 mM) buffer containing 1 mM EGTA, 10 mM MgCl2 (pH 7.4) and 10 μM pargyline. The binding assay was carried out in 96-well-plates in the presence of [^3H]LSD (approximately 1 nM), approximately 2 μg/well of membrane protein, and 0.5 mg of Ysi-poly-l-lysine SPA beads in a final volume of 200 μl of buffer. Non-specific binding was defined using methiothepin 2 μM. Compounds were tested at 10 concentrations. All assays were conducted in duplicate and repeated at least two times. Assay plates were incubated for 120 min at room temperature before centrifugation. Bound ligand was determined using a Packard Topcount scintillation counter. IC50 values were calculated using a non-linear curve fitting program and Ki values calculated using the Cheng-Prussoff equation.
# T1 sequence (P47898 whole entry): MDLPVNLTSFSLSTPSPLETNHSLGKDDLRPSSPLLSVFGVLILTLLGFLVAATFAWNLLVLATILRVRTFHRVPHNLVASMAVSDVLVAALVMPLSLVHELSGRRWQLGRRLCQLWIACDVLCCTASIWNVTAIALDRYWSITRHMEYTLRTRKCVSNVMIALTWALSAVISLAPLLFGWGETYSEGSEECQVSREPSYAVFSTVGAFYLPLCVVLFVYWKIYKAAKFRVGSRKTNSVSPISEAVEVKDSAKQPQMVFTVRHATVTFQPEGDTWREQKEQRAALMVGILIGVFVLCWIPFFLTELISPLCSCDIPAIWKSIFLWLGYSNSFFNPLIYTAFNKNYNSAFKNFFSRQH
row,activity at the 5-HT5A receptor (in words),SMILES
1,more active,"CC(Nc1cccc2nc(Nc3cccc4c3OC(C)(C)C4)ccc12)c1cc(F)cc(F)c1 (single isomer, unassigned; (+)) [Example 158, (+)-N5-[1-(3,5-Difluoro-phenyl)-ethyl]-N2-(2,2-dimethyl-2,3-dihydro-benzofuran-7-yl)-quinoline-2,5-diamine]"

# Same assay, conditions: [3H]LSD approx. 1 nM; membranes from HEK-EBNA cells transiently expressing 5-HT5A; Ki from IC50 by Cheng-Prussoff
row,Ki,SMILES
1,6.41 nM,"COc1ccccc1CNc1ccc2c(NCc3cccc4[nH]ccc34)cccc2n1 [Example 102, N5-(1H-Indol-4-ylmethyl)-N2-(2-methoxy-benzyl)-quinoline-2,5-diamine]"
2,20.6 nM,"Cc1cc2cccc(Nc3ccc4c(Nc5cccc6[nH]ccc56)cccc4n3)c2o1 [Example 113, N5-(1H-Indol-4-yl)-N2-(2-methyl-benzofuran-7-yl)-quinoline-2,5-diamine]"
3,9.7 nM,"COc1cccc(CNc2cccc3nc(NCc4ccccc4OC)ccc23)c1 [Example 5, N5-(3-Methoxy-benzyl)-N2-(2-methoxy-benzyl)-quinoline-2,5-diamine]"
4,2.33 nM,"Cc1cc2cccc(Nc3ccc4c(NCc5[nH]cnc5C)cccc4n3)c2o1 [Example 125, N2-(2-Methyl-benzofuran-7-yl)-N5-(5-methyl-3H-imidazol-4-ylmethyl)-quinoline-2,5-diamine]"
5,4.31 nM,"CC1(C)Cc2cccc(Nc3ccc4c(NCc5cccc6[nH]ccc56)cccc4n3)c2O1 [Example 147, N2-(2,2-Dimethyl-2,3-dihydro-benzofuran-7-yl)-N5-(1H-indol-4-ylmethyl)-quinoline-2,5-diamine]"
6,3.08 nM,"CC1(C)Cc2cccc(Nc3ccc4c(NCc5ccc6[nH]cnc6c5)cccc4n3)c2O1 [Example 148, N5-(1H-Benzoimidazol-5-ylmethyl)-N2-(2,2-dimethyl-2,3-dihydro-benzofuran-7-yl)-quinoline-2,5-diamine]"
7,5.25 nM,"Cc1ccc(CNc2ccc3c(NCc4cccc5[nH]ccc45)cccc3n2)o1 [Example 91, N5-(1H-Indol-4-ylmethyl)-N2-(5-methyl-furan-2-ylmethyl)-quinoline-2,5-diamine]"
8,4.74 nM,"CC(Nc1cccc2nc(Nc3cccc4c3OC(C)(C)C4)ccc12)c1cc(F)cc(F)c1 (racemic) [Example 151, rac-N5-[1-(3,5-Difluoro-phenyl)-ethyl]-N2-(2,2-dimethyl-2,3-dihydro-benzofuran-7-yl)-quinoline-2,5-diamine]"
9,7.15 nM,"CC(Nc1cccc2nc(Nc3cccc4c3OC(C)(C)C4)ccc12)c1cccnc1 (racemic) [Example 162, rac-N2-(2,2-Dimethyl-2,3-dihydro-benzofuran-7-yl)-N5-(1-pyridin-3-yl-ethyl)-quinoline-2,5-diamine]"
10,3.1 nM,"CC(Nc1cccc2nc(Nc3cccc4c3OC(C)(C)C4)ccc12)c1cc(F)cc(F)c1 (single isomer, unassigned; (+)) [Example 158, (+)-N5-[1-(3,5-Difluoro-phenyl)-ethyl]-N2-(2,2-dimethyl-2,3-dihydro-benzofuran-7-yl)-quinoline-2,5-diamine]"
11,15.8 nM,"CC(Nc1cccc2nc(Nc3cccc4c3OC(C)(C)C4)ccc12)c1nccs1 (racemic) [Example 160, rac-N2-(2,2-Dimethyl-2,3-dihydro-benzofuran-7-yl)-N5-(1-thiazol-2-yl-ethyl)-quinoline-2,5-diamine]"

# The remaining lines, values behind:
row,SMILES,Ki
1,"Cc1ccc(CNc2ccc3c(NCc4ccc5[nH]cnc5c4)cccc3n2)o1 [Example 107, N5-(1H-Benzoimidazol-5-ylmethyl)-N2-(5-methyl-furan-2-ylmethyl)-quinoline-2,5-diamine]",3.92 nM
2,"c1cc(Nc2ccc3c(NCc4ccc5[nH]cnc5c4)cccc3n2)cc(C2CC2)c1 [Example 165, N5-(1H-Benzoimidazol-5-ylmethyl)-N2-(3-cyclopropyl-phenyl)-quinoline-2,5-diamine]",6.43 nM
3,"COc1ncccc1CNc1cccc2nc(NCc3ccc(C)o3)ccc12 [Example 27, N5-(2-Methoxy-pyridin-3-ylmethyl)-N2-(5-methyl-furan-2-ylmethyl)-quinoline-2,5-diamine]",43 nM
4,"COc1ccccc1CNc1ccc2c(CCc3cccc(CO)c3)cccc2n1 [Example 23, (3-{2-[2-(2-Methoxy-benzylamino)-quinolin-5-yl]-ethyl}-phenyl)-methanol]",18.4 nM
5,"COCc1cccc(CCc2cccc3nc(NCc4ccc(C)o4)ccc23)c1 [Example 33, {5-[2-(3-Methoxymethyl-phenyl)-ethyl]-quinolin-2-yl}-(5-methyl-furan-2-ylmethyl)-amine]",39.3 nM
6,"Cc1ccc(CNc2ccc3c(Nc4ccc(F)cc4)cccc3n2)o1 [Example 45, N5-(4-Fluoro-phenyl)-N2-(5-methyl-furan-2-ylmethyl)-quinoline-2,5-diamine]",13.2 nM
7,"COc1ccccc1CNc1ccc2c(NCc3cc[nH]n3)cccc2n1 [Example 98, N2-(2-Methoxy-benzyl)-N5-(1H-pyrazol-3-ylmethyl)-quinoline-2,5-diamine]",33.3 nM
8,"COc1ccccc1CNc1ccc2c(C(=NO)c3ccc(F)cc3)cccc2n1 [Example 167, (4-Fluoro-phenyl)-[2-(2-methoxy-benzylamino)-quinolin-5-yl]-methanone oxime]",7.19 nM
9,"Cc1ccc(CNc2ccc3c(NCc4cc[nH]n4)cccc3n2)o1 [Example 88, N2-(5-Methyl-furan-2-ylmethyl)-N5-(1H-pyrazol-3-ylmethyl)-quinoline-2,5-diamine]",32.9 nM
10,"COc1ccccc1CNc1ccc2c(NCc3nccs3)cccc2n1 [Example 110, N2-(2-Methoxy-benzyl)-N5-thiazol-2-ylmethyl-quinoline-2,5-diamine]",16.8 nM
11,"Cc1ccc(CNc2ccc3c(NS(=O)(=O)c4ccc(F)c(F)c4)cccc3n2)o1 [Example 74, 3,4-Difluoro-N-{2-[(5-methyl-furan-2-ylmethyl)-amino]-quinolin-5-yl}-benzenesulfonamide]",12.9 nM
12,"Cc1cc2cccc(Nc3ccc4c(NS(=O)(=O)c5cc(F)cc(F)c5)cccc4n3)c2o1 [Example 89, 3,5-Difluoro-N-[2-(2-methyl-benzofuran-7-ylamino)-quinolin-5-yl]-benzenesulfonamide]",50.6 nM
13,"Cc1ccc(CNc2ccc3c(NS(=O)(=O)c4cccc(F)c4)cccc3n2)o1 [Example 73, 3-Fluoro-N-{2-[(5-methyl-furan-2-ylmethyl)-amino]-quinolin-5-yl}-benzenesulfonamide]",21.4 nM
14,"COc1ccccc1CNc1ccc2c(NCc3ccncc3)cccc2n1 [Example 9, N2-(2-Methoxy-benzyl)-N5-pyridin-4-ylmethyl-quinoline-2,5-diamine]",34.5 nM
15,"COc1ccccc1CNc1ccc2c(NCc3c[nH]nn3)cccc2n1 [Example 106, N2-(2-Methoxy-benzyl)-N5-(1H-[1,2,3]triazol-4-ylmethyl)-quinoline-2,5-diamine]",30.4 nM
16,"O=S(=O)(Nc1cccc2nc(Nc3cccc(C4CC4)c3)ccc12)c1cc(F)cc(F)c1 [Example 159, N-[2-(3-Cyclopropyl-phenylamino)-quinolin-5-yl]-3,5-difluoro-benzenesulfonamide]",28.3 nM
17,"COc1ccccc1CNc1ccc2c(CCc3ccccc3)cccc2n1 [Example 4, (2-Methoxy-benzyl)-(5-phenethyl-quinolin-2-yl)-amine]",9.51 nM
18,"Cc1ccc(CNc2ccc3c(CCc4cccc(S(N)(=O)=O)c4)cccc3n2)o1 [Example 34, 3-(2-{2-[(5-Methyl-furan-2-ylmethyl)-amino]-quinolin-5-yl}-ethyl)-benzenesulfonamide]",12.4 nM
19,"Cc1ccc(CNc2ccc3c(NCc4ccccc4N4CCN(C)CC4)cccc3n2)o1 [Example 105, N2-(5-Methyl-furan-2-ylmethyl)-N5-[2-(4-methyl-piperazin-1-yl)-benzyl]-quinoline-2,5-diamine]",24.1 nM
